Measured values as given in patent US4025528A, “Thiazole derivatives of benzoic and phenylalkanoic acids” (Shionogi & Co., Ltd., priority 1973, dated 1977).
Like-named read-outs stand apart in the source and are kept apart here.

Assays:
[1] = tested on: Wistar rats; experiment: Anti-edema Activity (carrageenin foot edema); format: in vivo, Wistar rat; conditions: Rattus norvegicus, read-out: Anti-edema ED (30%)
Experimental: An aqueous solution of 1% carrageenin (0.05 ml) is used as phlogistic agent. After 30 minutes Wistar rats (180-200 g, female) are orally administered test compounds, the phalogistic agent is injected subcutaneously into the plantar parts of the foot of rats. The volume of swelling is measured 3 hours after carrageenin, and the anti-edema activity is determined by calculating the ratio of the edematous volume of medicated foot to that of non-medicated foot. […]

[2] = tested on: Wistar rats; experiment: Anti-abscess Activity (carrageenin); format: in vivo, Wistar rat; conditions: Rattus norvegicus, read-out: Anti-abscess ED (25%)
Experimental: Carrageenin (2% aqueous solution, 0.5 ml) is subcutaneously injected into the back of Wistar rats (180-200 g, female) and at the same time one-half dose of a test compound is orally given, the other half given 3 hours later. The animals are sacrificed 24 hours after carrageenin and the abscess formed is isolated and weighed. The ED25 is calculated by the Bliss' method.

[3] = tested on: Wistar rat; experiment: Anti-granuloma Activity (carrageenin filterpaper); format: in vivo; conditions: 168 h
Experimental: 3. Anti-granuloma Activity
Two circular pieces of filterpaper about 6 mm in diameter, soaking 90 mg of 5% carrageenin solution, are implanted subcutaneously in the abdominal skin of Wistar rat (180-200 g, female). A test drug is orally given once a day for 6 consecutive days. On the 7th day the animals are killed and the amount of granulation tissue deposited, the adrenals and the thymus are weighed. The ED25 is calculated by the Bliss' method.

[4] = tested on: guinea-pig; experiment: Anti-erythema Activity (ultraviolet light); format: in vivo
Experimental: 4. Anti-erythema Activity
The hair on the back of guinea-pig (300-400 g, male and female) is removed on the day before experiment. Thirty minutes after oral administration of a test drug, 3 circular areas (8 mm in diameter each) on the back of the animal are exposed to ultraviolet light for 60 seconds. Anti-erythema activity is evaluated at 2 hours after irradiation. The ED50 is calculated by Up and Down method of Brownlee et al. [J. Am. Stat. Assoc.

[5] = tested on: Wistar rat; experiment: Effect on Adjuvant Arthritis; format: in vivo; conditions: 120 h
Experimental: 5. Effect on Adjuvant Arthritis
A test compound is orally administered to the arthritic rat twice a day for 5 consecutive days. Five hours after the final medication the change in swelling volume of the arthritic foot is measured. The ED30 is calculated by the Bliss' method.

[6] = tested on: DS mice; experiment: Acetic Acid Writhing Method; format: in vivo; conditions: Mus musculus, read-out: Acetic Acid Writhing ED (50%)
Experimental: 6. Acetic Acid Writhing Method
DS mice (20-23 g, male) are treated with an intraperitoneal injection of 0.1 ml/10 g of 0.6% acetic acid 60 minutes after oral administration of a test drug. The number of times of writhing for 10 minutes is counted. The ED50 is calculated by the Bliss' method.

[7] = tested on: Wistar rat; experiment: Effect of Scald-inflamed Foot; format: in vivo; conditions: 1.5 h, read-out: Scald-inflamed Foot ED (100%)
Experimental: 7. Effect of Scald-inflamed Foot
A test drug is administered orally 90 minutes after scalding and the analgesic activity is evaluated by compressing the foot with a plunger.

[8] = tested on: Wistar rat; experiment: Effect on Yeast-inflamed Foot; format: in vivo; conditions: 2 h, oral, pain threshold two hours later, ED 100%
Experimental: 8. Effect on Yeast-inflamed Foot
A test compound is orally given Wistar rat (180-200 g, female) immediately before subcutaneous injection of 0.1 ml of 20% yeast suspension into the plantar tissue of the foot. Two hours later, the pain threshold is measured by comprissing the foot with a plunger and calculated by the method of Litchfield and Wilcoxon.

[9] = tested on: Wistar rat; experiment: Foot-licking Method (formaldehyde); format: in vivo
Experimental: Thirty minutes after oral administration of a test drug in Wistar rat (180-200 g, female), the effect of the compound on foot-licking syndrome due to irritation by a subcutaneous injection of 0.05 ml of 3.75% formaldehyde into the plantar tissue of the hind-paw is observed for 50 minutes. The ED50 is calculated by the method of Litchfield and Wilcoxon.

[10] = tested on: Wister rat; experiment: Anti-pyretic Activity (yeast); format: in vivo; conditions: read-out: Anti-pyretic Activity, dose by which body temperature is reduced 0.5° C.
Experimental: 11. Anti-pyretic Activity
A test compound is orally administered to Wister rat (180-200 g, female) 16 hours after an injection of 2 ml of 15% suspension of yeast into the subcutaneous tissue of the hip of the rat. The rectal temperature is measured every 1 hour for 5 hours. The effective dose is calculated by the Bliss' method.

[11] = in vivo; conditions: mouse, po
[12] = in vivo; conditions: rat, po
[13] = oral, swelling 3 hours after carrageenin, ED 30%
[14] = oral, two half doses, 24 hours after carrageenin, ED25
[15] = oral once a day for 6 days, ED25, read-out: Anti-granuloma ED (25%)
[16] = Cavia porcellus, light or radiation study, po, 2 h; read-out: Anti-erythema ED (50%)
[17] = oral twice a day for 5 days, ED30, read-out: Arthritis ED (30%)
[18] = oral, 60 minutes before 0.6% acetic acid i.p., ED50
[19] = oral, 90 minutes after scalding, pain threshold, ED 100%
[20] = oral, thirty minutes before formaldehyde, ED50, read-out: Footlicking ED (50%)
[21] = oral, 16 hours after yeast injection

SMILES | ED100 [8] [mg/kg] | LD50 at 72 h [11] [mg/kg] | LD50 at 72 h [12] [mg/kg] | ED30 [1, 13] [mg/kg] | ED25 [2, 14] [mg/kg] | ED25 [3, 15] [mg/kg] | ED50 [4, 16] [mg/kg] | ED30 [5, 17] [mg/kg] | ED50 [6, 18] [mg/kg] | ED100 [7, 19] [mg/kg] | ED50 [9, 20] [mg/kg] | ED (0.5 degC reduction) [10, 21] [mg/kg] | further results
CC(=O)Oc1ccccc1C(=O)O [Acetylsalicylic Acid, acetylsalicylic acid] | 250 | 2000 | 2400 | – | – | – | – | – | – | – | – | – | ED30 ([1]; po, 3 h): 48 mg/kg; ED25 ([2]; po, 24 h): 175 mg/kg; ED25 ([3]; po, read-out: Anti-granuloma ED (25%)): > 500 mg/kg; ED50 ([4]; Cavia porcellus, light or radiation study, po, 2 h, read-out: Anti-erythema ED (50%)): 79 mg/kg; ED30 ([5]; po, read-out: Arthritis ED (30%)): 100 mg/kg; ED50 ([6]; po): 180 mg/kg; ED100 ([7]; po): 260 mg/kg; ED50 ([9]; po, read-out: Footlicking ED (50%)): 580 mg/kg; ED (0.5 degC reduction) ([10]; po, 16 h): 14 mg/kg
Cc1nc(Oc2ccccc2)sc1C(C)C(=O)O (centres unmarked) [Example 48-140, calcium 2-(2-phenoxy-4-methyl-5-thiazolyl)propionate] | 110 | 1190 | 1200 | 14 | 60 | 230 | 27 | 20 | 180 | > 500 | 130 | 23 | –
CC(C(=O)O)c1ccc(Oc2nccs2)cc1 (centres unmarked) [Example 48-156, 2-[4-(2-thiazolyloxy)phenyl]propionic acid] | 28 | – | – | 3.8 | 6.4 | 13 | 20 | 4.2 | 20 | 77 | 175 | 4 | –
CCCCC1C(=O)N(c2ccccc2)N(c2ccccc2)C1=O [Phenylbutazone, phenylbutazone] | 130 | – | – | 48 | 33 | 24 | 26 | 7.8 | 440 | 240 | 150 | 3.8 | –
